Results as given in patent US20250188088A1, “COMPOUND AND USE THEREOF” (ONQUALITY PHARMACEUTICALS CHINA LTD., priority 2022, published 2025).

Columns and labels:
[1] = test system: rash caused by monoclonal EGFR inhibitors; test: Treatment of rash caused by monoclonal EGFR inhibitors, topical ointment, rat model; format: in vivo; details: SD rats
Description: An Experiment to Verify the Treatment of Rash Caused by Monoclonal EGFR Inhibitors with Topical Administration of Compounds of the Present Application on a Rat Animal Model After the SD rats were fed and adapted for one week (about 200 g), the rats were divided into 10 rats per group. The hair on the back of rats was gently removed with an electric razor one day before the experiment, and then an administration test was carried out. The EGFR monoclonal antibody solution diluted with normal saline was injected via tail vein twice a week, and the injection rate and time were shown in Table 4; the treatment experiment was started at the time point when rats developed a rash after continuous administration for 1-2 weeks. The experiments were divided into the administration group with the compound of the present application and the control group. During the treatment experiment, monoclonal antibody EGFR inhibitors were injected twice a week. the administration group applied the compound ointment of the present application on the back (about 3 cm*3 cm) of rats every day, and the control group applied blank matrix ointment on the back (about 3 cm*3 cm); after application, the rats were fixed with a fixed cyclinder for about 4 hours, and then the rats were released, with the residual drug at the application site wiped off with clean water, and put back into the cage. […] Table 4 lists the animal experiment combinations of monoclonal antibody EGFR inhibitors and the compound ointment of the present application, as well as the corresponding experiment results (wherein, the value in the control rate column=the number of rats whose rash is milder in the administration group than that in the control group/the total number of rats in the administration group×100%).

[2] = test system: rash caused by small molecule EGFR inhibitors; test: Prevention of rash caused by small molecule EGFR inhibitors, topical ointment, rat model; format: in vivo, SD rats
Excerpt: An Experiment to Verify the Prevention of Rash Caused by Small Molecule EGFR Inhibitors with Topical Administration of Compounds of the Present Application on a Rat Animal Model A rat animal model was established. After daily gavage of a small molecule EGFR inhibitor to female SD rats for […], the rats developed extensive rashes on their backs several days later (picture shown in FIG. 1). […] Similar to humans, rats developed skin rashes on their faces and bodies after oral administration of small molecule EGFR inhibitors. Both of them had the same etiology and very similar symptoms. Therefore, rats are a proper animal model for mimicking EGFR inhibitor-induced rash. After the SD rats were fed and adapted for one week (about 200 g), the rats were divided into 10 rats per group. The hair on the back of rats was gently removed with an electric razor one day before the experiment, and then an intragastric administration test was carried out. EGFR inhibitors were dissolved in a sterile aqueous solution, and diluted with PBS buffer; the amount of each gavage was not more than 2 mL, and the dosage was shown in Table 1. The experiment comprised the administration group and the control group. After intragastric administration, apply the ointment (type and concentration are shown in Table 1) of the compound used in the present application to the backs (about 3 cm*3 cm) of rats in the administration group; apply blank matrix ointment (about 0.5 g) to the backs (about 3 cm*3 cm) of rats in the control group; fix the rats with a fixed cylinder for about 4 hours after drug application, release the rats after 4 hours, wipe off the residual drug at the application site with clean water, and put them back into the cage. The frequency of intragastric administration of EGFR inhibitors is shown in Table 1, but the compounds of the present application and blank matrix ointment are applied only once a day. The intragastric administration and application test were repeated daily until an obvious rash appeared in the control group. […] Table 1 lists the animal experiment combination of various small molecule EGFR inhibitors and the compound ointment of the present application, as well as the corresponding experiment results (wherein, the value in the control rate column=the number of rats whose rash is milder in the administration group than that in the control group/the total number of rats in the administration group×100%).

[3] = test system: rash caused by monoclonal EGFR inhibitors; test: Prevention of rash caused by monoclonal EGFR inhibitors, topical ointment, rat model; format: in vivo, SD rats
Description: An Experiment to Verify the Prevention of Rash Caused by Monoclonal EGFR Inhibitors with Topical Administration of Compounds of the Present Application on a Rat Animal Model After the SD rats were fed and adapted for one week (about 200 g), the rats were divided into 10 rats per group. The hair on the back of rats was gently removed with an electric razor one day before the experiment, and then an administration test was carried out. The experiments were divided into the administration group with the compound of the present application and the control group. The EGFR monoclonal antibody solution diluted with normal saline was injected via the tail vein twice a week, and the injection rate and time are shown in Table 2. After injection, the administration group applied the compound ointment of the present application on the backs (about 3 cm*3 cm) of rats every day, and the control group applied blank matrix ointment (about 0.5 g) to the backs (about 3 cm*3 cm) of rats every day. After drug application, the rats were fixed with a fixed cyclinder for 4 h; after that, the rats were released and the residual drug at the application site was wiped off with clear water. Monoclonal antibody EGFR inhibitors were injected via the tail vein twice a week, and the compound of the present application and blank ointment were applied once a day until obvious rashes appeared in the control group. […] Table 2 lists the animal experiment combinations of various monoclonal antibody EGFR inhibitors and the compound ointment of the present application, as well as the corresponding experiment results (wherein, the value in the control rate column=the number of rats whose rash is milder in the administration group than that in the control group/the total number of rats in the administration group×100%).

[4] = Plasma stability, mini pig plasma; format: in vitro ADME, Mini Pigs; details: 37° C.
Description: (§1) In addition, the plasma stability of these compounds was determined. Briefly, the determination method comprises the following steps: • 1) Thaw the frozen mixed plasma in a 37° C. water bath before testing, and then centrifuge at 4000 rpm for 5 min to remove blood clots; • 2) Add 98 μL blank plasma into each well of the 96-well reaction plate; • 3) In addition to the blank samples, add 2 μL of 100 μM working solution of test compound into each well; • 3) Incubate the reaction plate at 37° C. and start timing. Incubation times were 0, 10, 30, 60 and 120 minutes, respectively, with two replicate wells at each time point; • 4) Terminate the incubation at the corresponding time point, and add 400 μL of acetonitrile solution containing 200 ng/mL tolbutamide and 200 ng/mL labetalol to precipitate proteins; • 5) Shake each plate for 20 minutes, then centrifuge at 4000 rpm for 20 minutes, transfer 50 μL of supernatant to another 96-well plate, and dilute each sample with 100 μL of pure water; • 6) Analyze the sample by LC-MS/MS.

[5] = Plasma stability, human plasma; format: in vitro ADME, Humans; details: 37° C.
Description: as §1
The experiment results are as follows, and it can be seen from the test results that the selected compounds are easily metabolized to the target compound in human plasma.

[6] = Panitumumab 6 mg/kg twice a week via tail vein, ointment 0.1 wt%, 8 days of drug application
[7] = BPI-7711 60 mg/kg once a day, ointment 5.0 wt% (A14: printed '^ 5%%') once a day, 12 days

CN(CCOC(=O)C1CCCCC1)C(=O)n1ccc2c(-c3cnn([C@@H](CC#N)C4CCCC4)c3)ncnc21 [Compound A39]
Control Rate ([1]; Cetuximab 100 mg/kg twice a week via tail vein, ointment 0.1 wt%, 10 days of drug application): 20%
Control Rate ([1]; Cetuximab 100 mg/kg twice a week via tail vein, ointment 1.0 wt%, 10 days of drug application): 40%
Control Rate ([1]; Cetuximab 100 mg/kg twice a week via tail vein, ointment 5.0 wt%, 10 days of drug application): 80%
Control Rate ([1]; Cetuximab 100 mg/kg twice a week via tail vein, ointment 10.0 wt%, 10 days of drug application): 100%
Control Rate [1, 6]: 20%
Control Rate ([1]; Panitumumab 6 mg/kg twice a week via tail vein, ointment 1.0 wt%, 8 days of drug application): 30%
Control Rate ([1]; Panitumumab 6 mg/kg twice a week via tail vein, ointment 5.0 wt%, 8 days of drug application): 60%
Control Rate ([1]; Panitumumab 6 mg/kg twice a week via tail vein, ointment 10.0 wt%, 8 days of drug application): 70%
Control Rate [2, 7]: 90%
Control Rate ([2]; EAI045 80 mg/kg once a day, ointment 1.0 wt% once a day, 11 days): 20%
Control Rate ([2]; EAI045 80 mg/kg once a day, ointment 5.0 wt% once a day, 11 days): 65%
Control Rate ([2]; Osimertinib 60 mg/kg twice a day, ointment 0.1 wt% once a day, 10 days): 10%
Control Rate ([2]; Osimertinib 60 mg/kg twice a day, ointment 3.0 wt% once a day, 10 days): 30%
Control Rate ([2]; Zorifertinib 60 mg/kg once a day, ointment 5.0 wt% once a day, 14 days): 40%

C[C@@H]1CCN(C(=O)CC#N)C[C@@H]1N(C)c1ncnc2c1ccn2C(=O)N(C)CCOC(=O)c1ccccc1 [Compound A14]
Control Rate ([1]; Cetuximab 102 mg/kg twice a week via tail vein, ointment 1.0 wt%, 10 days of drug application): 20%
Control Rate ([1]; Cetuximab 102 mg/kg twice a week via tail vein, ointment 5.0 wt%, 10 days of drug application): 60%
Control Rate [1, 6]: 40%
Control Rate ([1]; Panitumumab 6 mg/kg twice a week via tail vein, ointment 3.0 wt%, 8 days of drug application): 70%
Control Rate [2, 7]: 70%
Control Rate ([2]; Dacomitinib 10 mg/kg once a day, ointment 1.0 wt% once a day, 12 days): 50%
Control Rate ([2]; Dacomitinib 10 mg/kg once a day, ointment 5.0 wt% once a day, 12 days): 65%
Control Rate ([2]; Osimertinib 60 mg/kg twice a day, ointment 0.3 wt% once a day, 10 days): 30%
Control Rate ([2]; Osimertinib 60 mg/kg twice a day, ointment 10.0 wt% once a day, 10 days): 80%
Control Rate ([2]; Zorifertinib 60 mg/kg once a day, ointment concentration printed '^ 3%%' (wt %) once a day, 14 days): 50%

CCCCC(=O)OCCN(C)C(=O)n1ccc2c(N(C)[C@H]3CN(C(=O)CC#N)CC[C@H]3C)ncnc21 [Compound A22]
Control Rate ([3]; Cetuximab 100 mg/kg twice a week via tail vein, ointment 0.3 wt% once a day, 10 days): 20%
Control Rate ([3]; Cetuximab 100 mg/kg twice a week via tail vein, ointment 5.0 wt% once a day, 10 days): 40%
Control Rate ([3]; Panitumumab 10 mg/kg twice a week via tail vein, ointment 1.0 wt% once a day, 14 days): 30%
Control Rate ([3]; Panitumumab 10 mg/kg twice a week via tail vein, ointment 10.0 wt% once a day, 14 days): 65%
half-life at 2 µM [4]: 6.3 min
% Retained ([4]; 0 min): 100.0%
% Retained ([4]; 10 min): 25.5%
% Retained ([4]; 30 min): 1.8%
% Retained ([4]; 60 min): 0.1%
% Retained ([4]; 120 min): 0.1%
half-life at 2 µM [5]: 3.1 min
% Retained ([5]; 0 min): 100.0%
% Retained ([5]; 10 min): 4.5%
% Retained ([5]; 30 min): 0.1%
% Retained ([5]; 60 min): 0.1%
% Retained ([5]; 120 min): 0.0%
